Data published in publication PMC2970562, “High-Affinity Inhibitors of Human NAD^+-Dependent 15-Hydroxyprostaglandin Dehydrogenase: Mechanisms of Inhibition and Structure-Activity Relationships” (PLoS ONE, 2010).

Biological target: T1, human 15-PGDH (Homo sapiens, UniProt P15428)
T1 construct: comprising residues 3–256 of the human HPGD gene (GenBank identifier: 1203982); His6 (GHHHHHH, behind the TEV site) (C, cleaved yes); made in house; host or cells: E. coli BL21(DE3)-R3
T1 sequence (P15428 3-256): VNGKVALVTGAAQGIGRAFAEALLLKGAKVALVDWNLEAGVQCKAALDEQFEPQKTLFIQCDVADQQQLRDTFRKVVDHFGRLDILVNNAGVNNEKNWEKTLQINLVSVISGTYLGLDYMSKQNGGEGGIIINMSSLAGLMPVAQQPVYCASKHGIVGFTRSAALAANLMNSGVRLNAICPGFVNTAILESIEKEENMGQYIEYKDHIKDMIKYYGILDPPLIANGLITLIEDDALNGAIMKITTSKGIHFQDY
Assay: qHTS and 24-point re-test: fluorescence assay of NAD+ reduction to NADH on PGE2 oxidation (PubChem AID 894)
Type: biochemical
Conditions: potency in 24-point titrations on re-test; 20 nM 15-PGDH, 1 mM NAD+, 30 µM PGE2, pH 8.0; read-out: qHTS IC50
Protocol: The assay was miniaturized to a 4-µL volume in 1536-well format: enzyme (3 µL) was dispensed first, followed by a pintool transfer of library compounds dissolved in DMSO. After equilibration, a substrate dispense (1 µL) initiated the enzymatic reaction (see Materials and Methods, for detailed protocol description). […] Hits associated with low-efficacy (<40% maximum inhibition), incomplete curves, as well as those displaying only a single-point inhibition at the top concentration tested were eliminated from further consideration. Similarly, the collection of real-time kinetic data allowed the autofluorescence of each compound to be evaluated by comparing the initial fluorescence read at top concentration with the mean value of uninhibited assay controls: compounds whose top-concentration initial well fluorescence exceeded six standard deviations over the mean were flagged as potential autofluorescent artifacts, [28] (see example in supplementary information Figure S1E). The complete screening and followup results are available in PubChem (PubChem Assay ID 894).
The enzymatic reaction was performed in 50 mM Tris-HCl pH 8.0, containing 0.01% Tween 20. […] The high-throughput screen was performed on a fully integrated robotic system (Kalypsys Inc, San Diego, CA) as described elsewhere. Library compounds, arrayed as seven-point inter-plate concentration series, were screened from the lowest (3.5 nM) to the highest (57.5 µM) concentration, with plates containing DMSO only, serving to note any systematic drifts in the signal, interspersed evenly throughout the screen (approximately every 50 plates). Briefly, 3 µL of reagents were dispensed into 1536-well Greiner black solid-bottom assay plates using integrated nanoliter solenoid-technology dispensers. Compounds and controls (23 nL) were transferred via Kalypsys pintool equipped with 1,536-pin array (10-nL slotted pins; V&P Scientific, Palo Alto, CA). After a 15-minute incubation (to allow for interaction between compound and enzyme), a 1-µL substrate addition step initiated the reaction. Kinetic data were collected on a ViewLux High-throughput CCD imager (Perkin-Elmer) equipped with standard UV fluorescence optics (exc. 340 nm, em. 450 nm).
Starting fluorescence intensity and the change in fluorescence over the two-minute initial rate period were recorded for every well. Screening data were normalized against no-enzyme (64 wells, columns 3 and 4) and no-compound (32 wells located in column 1) controls, and concentration-response relationships were derived as described previously. A four-parameter Hill equation [47] was fitted to the concentration-response data using publicly available algorithms (http://www.ncgc.nih.gov/pub/openhts/curvefit/).

Compound	IC50 [nM]
O=C(O)c1cccc(Oc2cc(Cl)cc(Cl)c2)c1 [Compound 51]	6310
O=C(O)c1ccc(Cl)c(Cl)c1Br [Compound 52]	14100
O=C(NCCc1ccc(Cl)cc1)C1CCC(CNc2c(N3CCCCC3)c(=O)c2=O)CC1 (centres unmarked) [Compound 53]	17800
COC(=O)CSc1nc2cc(Br)c(C)nc2[nH]1 [Compound 58]	15800
CC1=NOC(=O)C1=Cc1ccc(-c2cc(Cl)ccc2Cl)o1 [Compound 62]	447
O=C(COc1ccc(F)cc1Cl)Nc1cccc(C(=O)NC2CC2)c1 [Compound 63]	447
CC1=NOC(=O)C1=Cc1ccc(-c2ccc(Cl)cc2)o1 [Compound 64]	1120
CCCCc1ccc(NC(=O)C2=CN3CCS(=O)(=O)N=C3C=C2)cc1 [Compound 67]	398
CCCCCCCCCOC(=O)c1ccc2c(c1)N(CCCS(=O)(=O)O)/C(=C\C=C\c1n(CCCS(=O)(=O)O)c3cc(C(=O)OCCCCCCCCC)ccc3[n+]1CC)N2CC [Compound 68]	447
COc1ccc(OC)c(NC(=O)Cc2cc(Cl)ccc2OC)c1 [Compound 69]	562
CCc1nc(N2CCN(C(=O)c3ccco3)CC2)c(C#N)c2c1COC(C)(C)C2 [Compound 70]	3160
FC(F)(F)c1ccc(-c2nnco2)cc1 [Compound 73]	126
CCNC(=O)c1ccc(CSc2ccc(Cl)cc2)cc1 [Compound 74]	3980
N#Cc1c(NC(=O)COC(=O)C23CC4CC(CC(C4)C2)C3)sc2c1CCCCC2 [Compound 75]	2510
COc1cccc(NC(=O)N2CCC3(CC2)C(=O)N(CC(=O)NCc2ccc4c(c2)OCO4)CN3c2ccccc2)c1 [Compound 76]	112
Cc1ccc(NC(=O)COc2cccc(C=C(C#N)C(=O)Nc3cccc(Cl)c3C)c2)cc1C [Compound 77]	14100
COc1ccc(/C=C2\SC(=O)N(CCNC(=O)c3ccc(Br)o3)C2=O)cc1OC [Compound 81]	1580
CN1CCCc2cccc(C[S+]([O-])c3ncc[nH]3)c21 (centres unmarked) [Compound 82]	501
CC(C)CC=NCCCCCCN=CCC(C)C [Compound 83]	1260
COc1ccc(C(=O)c2ccccc2O)c(O)c1 [Compound 85]	1000
O=c1oc2c(O)c(O)cc3c(=O)oc4c(O)c(O)cc1c4c23 [Compound 86]	45

Biological target: T1, human 15-PGDH
Assay: Differential scanning fluorimetry (DSF), thermal stabilization
Type: binding
Conditions: pH 8.0; ligand-free Tm 41.2±0.3°C
Protocol: A correlation between the ΔTm and the inhibitory potency has been shown in a number of protein-ligand systems, particularly for kinases [32]–[34].
Studies to assess the thermal stability of human 15-PGDH in presence of compounds were performed as described previously, with variations. Briefly, the protein was diluted to a final assay concentration of 1 µM in 100 mM Tris buffer pH 8.0, containing 0.01% Tween-20 and 1∶1000 SYPRO orange dye (Invitrogen). […] Compounds were added at a ratio of 1∶5 from appropriate stock solutions in 10% (v/v) DMSO to comprise either 50 or 250 µM final concentrations. Heat denaturation curves were recorded using a RT-PCR instrument (Mx3005p, Agilent) applying a temperature gradient of 2°C/min. […] 2.5 (ftp://ftp.sgc.ox.ac.uk/pub/biophysics) and PRISM 5.0 (GraphPad Software, Inc.).

Compound	Tm of 15-PGDH in the presence of cofactor [°C]
NC(=O)C1=CN([C@@H]2O[C@H](COP(=O)(O)OP(=O)(O)OC[C@H]3O[C@@H](n4cnc5c(N)ncnc54)[C@H](O)[C@@H]3O)[C@@H](O)[C@H]2O)C=CC1 [NADH, reference compound]	52.5±0.4

Same assay, conditions: versus ligand-free 15-PGDH, pH 8.0

Compound	increase of stability by cofactor
NC(=O)C1=CN([C@@H]2O[C@H](COP(=O)(O)OP(=O)(O)OC[C@H]3O[C@@H](n4cnc5c(N)ncnc54)[C@H](O)[C@@H]3O)[C@@H](O)[C@H]2O)C=CC1 [NADH, reference compound]	more than 10 °C
